The term IC50 denotes the midpoint of a concentration-inhibition curve. High values mean lower potency, low ones higher potency. Broadly, the Ki is a measure of affinity in units of concentration, obtained from inhibition or displacement.

The values that follow come from patent publication US5498605A (priority 1994, dated 1996).

The nature of data set [1]: Sedation in rats after i.p. injection. Type of data set: in vivo, rat. The note with it: 25 and 50 mg/kg i.p., during one hour.
Data set [2] deals with T1, A2 adenosine receptors (Rattus norvegicus, UniProt P30543). Kind of data set: Inhibition of [3H]CGS 21680 binding to A2 receptors in rat striatal membranes. As to conditions: rat striatum. Also on record: Rat cerebral cortical membranes and striatal membranes were prepared; from tissue; host or cells: rat striatal membranes.
T1 sequence (P30543 whole entry): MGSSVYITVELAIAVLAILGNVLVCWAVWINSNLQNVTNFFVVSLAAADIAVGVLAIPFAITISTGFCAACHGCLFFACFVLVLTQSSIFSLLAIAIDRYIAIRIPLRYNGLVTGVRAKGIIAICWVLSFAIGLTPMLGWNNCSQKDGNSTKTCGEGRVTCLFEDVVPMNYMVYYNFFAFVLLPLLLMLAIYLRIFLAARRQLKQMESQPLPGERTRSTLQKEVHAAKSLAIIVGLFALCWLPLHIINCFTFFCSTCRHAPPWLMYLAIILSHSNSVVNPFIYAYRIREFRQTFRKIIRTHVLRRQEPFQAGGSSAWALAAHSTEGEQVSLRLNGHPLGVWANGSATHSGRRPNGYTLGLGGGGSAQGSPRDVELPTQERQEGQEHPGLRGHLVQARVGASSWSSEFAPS
Protocol: Membranes (about 80 μg protein, 5 mg wet weight, per tube) were incubated for one hour at 25° C. in a total volume of 1 mL. […] Filtration was carried out using a Brandel Cell Harvester, as above.
(§1) At least seven different concentrations spanning four orders of magnitude, adjusted appropriately for the IC50 of each compound, were used.
Data set [3] has as its system synaptic potentials (fEPSPs) in CA1 region of hippocampal slices. Nature of the data set: Inhibition of synaptic potentials (fEPSPs) in hippocampal slices (species not specified for this result). More on the design: species or system adult rats and gerbils. The method, then:
Hippocampal slices were prepared from adult rats (200-300 g) and gerbils as described in Lee et al., Electrophysiology of Isolated Mammalian CNS Preparation (G. A. Kerkut and H. V. Wheat, eds. 1981), pp. 189-211. Field excitatory postsynaptic potentials (fEPSPs) were recorded in the stratum radiatum of the CA1 region in response to stimulation of Schaffer collateral/commisural afferents. Slices were superfused continuously with artificial cerebrospinal fluid (ACSF; described in Lee et al., and fEPSPs were sampled every 15 seconds.
The amplitude of fEPSPs responses was measured on-line and plotted over the time course of each experiment. The magnitude of the inhibitory effect of a compound on fEPSP amplitude was expressed as the percentage inhibition, according to the formula: Percentage inhibition=[(Amplitude in ACSF only--Amplitude in drug)[…]Amplitude in ACSF only]×100.

For data set [4], the target named is T2, A1 adenosine receptors (Rattus norvegicus, UniProt P25099).
T2 construct: Rat cerebral cortical membranes and striatal membranes were prepared; from tissue; host or cells: rat cerebral cortical membranes
T2 sequence (P25099 1-326): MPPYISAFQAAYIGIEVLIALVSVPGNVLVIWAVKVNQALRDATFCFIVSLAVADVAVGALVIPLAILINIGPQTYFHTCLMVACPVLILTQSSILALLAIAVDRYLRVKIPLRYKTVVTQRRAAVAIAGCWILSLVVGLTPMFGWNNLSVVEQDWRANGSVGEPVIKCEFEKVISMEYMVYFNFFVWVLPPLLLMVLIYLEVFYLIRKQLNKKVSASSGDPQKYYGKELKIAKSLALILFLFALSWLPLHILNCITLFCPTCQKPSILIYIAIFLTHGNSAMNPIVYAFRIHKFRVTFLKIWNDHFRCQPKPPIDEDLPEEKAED
Kind of data set: Inhibition of [3H]N6-phenylisopropyladenosine binding to A1 adenosine receptors in rat cerebral cortex membranes. The note with it: for Ki: rat brain, vs 1.0 nM [3H]PIA, read-out: A1-Receptor Ki.
Protocol: Bound and free radioligand were separated by addition of 4 mL of a solution containing 50 mM Tris hydrochloride, at pH 7.4 at 5° C., followed by vacuum filtration using a Brandel Cell Harvester (Brandel, Gaithersburg, Md.) and a Whatman GF/B glass fiber filter with additional washes totaling 12 mL of buffer.
as §1

The nature of data set [5]: Rectal temperature in rats. The format is in vivo, rat. The note with it: Sprague Dawley rats, vehicle caused small rise (approximately 1° C.). The method, then:
Rectal temperature was then recorded.

Data set [6] has as its system lipolysis. Nature of the data set: In vivo lipolysis (serum glycerol) in rats. The note with it: post i.p. injection. More on the design: species or system rat.
The test system of data set [7] is lipolysis. Kind of data set: In vivo lipolysis (serum glycerol) in rats. Also on record: species or system rat. The note with it: for lowering of serum glycerol levels: at 60 min. The method, then:
Sprague Dawley rats (200-250 g) were fasted overnight. A blood sample was taken from the tail vein 10 sec before the subcutaneous injection of the drug in vehicle (10% DMSO in saline). Additional blood samples were taken from the tail vein at 30, 60 and 90 min post-injection and were kept on ice and centrifuged (1000 Xg) within one-half hour. A perchloric acid extract (3%) of plasma was neutralized with potassium hydroxide, 3-[N-morpholino]propanesulfonic acid, and then assayed for glycerol as described in Eggstein, et al., Methods of Enzymatic Analysis (H. U. Bermeyer ed., 1974), pp. 1825-1831.

For data set [8], the target named is T1, A2 adenosine receptors. Nature of the data set: Competitive binding at A2 receptors versus [3H]NECA (footnote c). As to conditions: read-out: A2-Receptor Ki.
Data set [9] addresses T3, A1 adenosine receptors (Bos taurus, UniProt P28190).
T3 construct: calf brain; from tissue; host or cells: calf brain
T3 sequence (P28190 1-326): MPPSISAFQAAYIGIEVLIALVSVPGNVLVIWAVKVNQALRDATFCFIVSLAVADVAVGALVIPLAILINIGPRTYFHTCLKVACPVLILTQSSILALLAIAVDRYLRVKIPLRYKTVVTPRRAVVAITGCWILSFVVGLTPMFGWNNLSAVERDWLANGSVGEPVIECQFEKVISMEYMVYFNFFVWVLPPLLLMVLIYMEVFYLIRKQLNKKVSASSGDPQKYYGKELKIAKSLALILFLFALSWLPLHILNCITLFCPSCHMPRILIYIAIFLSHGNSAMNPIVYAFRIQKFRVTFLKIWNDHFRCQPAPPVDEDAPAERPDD
Kind of data set: Competitive binding at A1 receptors, calf brain (footnote f). As to conditions: read-out: A1-Receptor Ki.

In the case of `O=S(=O)(O)c1ccc(CCCNc2ncnc3c2ncn3[C@@H]2O[C@H](CO)[C@@H](O)[C@H]2O)cc1` [3-p-sulfophenylpropyl, N^6-3-p-sulfophenylpropyladenosine], in data set [1], the sedation entry is “moderate sedation”. Further, the “affinity for the A2 striatal receptors (in words)” value at A2 adenosine receptors [2] is “demonstrated affinity”. Further, the onset of action result in data set [3] (compared with adenosine and CPA) is recorded as “slightly slower onset of action in this assay than adenosine itself, but a faster onset of action than CPA”. Besides, the concentration for half-maximal inhibition (IC50) in data set [3] (hippocampal slices) worked out at 1700 nM. For the same compound, in data set [3] (hippocampal slices), the agonist action entry is on record as “clearly acts as an agonist”. For the same compound, the inhibitory constant (Ki) on A1 adenosine receptors [4] is 610 ± 39 nM. Moreover, the “affinity for the A1 cortical receptors (in words)” value at A1 adenosine receptors [4] (rat cerebral cortex) is “demonstrated affinity”. Besides, the rectal temperature entry in data set [5] (i.c.v.) and in [5] (i.p.) was “caused rectal temperature depression” in each case. Besides, the “time of maximum effect on serum glycerol” value in the data set on lipolysis [6] lay in the range of 30 to 60 min. In addition, the “lowering of serum glycerol levels” value in the data set with lipolysis [7] (0.5 mg/kg) turned out to be 30%; in the data set with lipolysis [7] (1.0 mg/kg), 34%. Moreover, the “effect on serum glycerol levels (inhibition of lipolysis, in words)” value with lipolysis [7] (doses of 0.1-1.0 mmol/kg) was “lower serum glycerol levels”.
With `OC[C@H]1O[C@@H](n2cnc3c(Nc4ccccc4)ncnc32)[C@H](O)[C@@H]1O` [phenyl, reference compound], at A1 adenosine receptors [4], the “Affinity ratio A1/A2” value worked out at 190 and the Ki amounted to 3.5 ± 0.5 nM. Also, on A2 adenosine receptors [8], the Ki amounted to 663 nM.
Regarding `CCCCCCCCCCNc1ncnc2c1ncn2[C@@H]1O[C@H](CO)[C@@H](O)[C@H]1O` [decyl], the inhibitory constant (Ki) on A1 adenosine receptors [9] came out at 21 nM.
